“Also recorded” adds a separate entry of the source.
Legend:
U937 and OCI-AML2 cells = assay: Flow cytometry-based CRISPR competition assay (RFP+/GFP+ ratio); type: cell-based, human
Description: To investigate the role of the mTOR signaling pathway in mediating Compound D sensitivity, a CRISPR competition assay was performed (see FIG. 6A). U937 cells stably expressing Cas9 were infected with a lentiviral vector expressing GFP and non-targeting sgRNA (sgNT), or lentiviral vectors expressing RFP and non-targeting sgRNA (sgNT), or lentiviral vectors expressing RFP and sgRNAs targeting MTOR, RICTOR or RAPTOR. Cells were then treated with DMSO or 100 nM Compound D. The RFP+/GFP+ ratio was monitored by flow cytometry every 2-3 days thereafter.
Next, CRISPR competition assays were conducted in U937 and OCI-AML2 cells as described above. Specifically, U937 cells stably expressing Cas9 were infected with lentiviral vector constitutively expressing GFP and non-targeting sgRNA (sgNT), or with lentiviral vectors constitutively expressing RFP and non-targeting sgRNA (sgNT) or sgRNAs targeting TSC1 or TSC2. Three days after infection, RFP and GFP cells were mixed at a 1:1 ratio and treated with DMSO, 1 μM Compound D, or 10 μM Compound D. The change of RFP+/GFP+ ratio was monitored by flow cytometry every 2-3 days thereafter. Similarly, OCI-AML2 cells stably expressing Cas9 were infected with lentiviral vector constitutively expressing GFP and non-targeting sgRNA (sgNT), or with lentiviral vectors constitutively expressing RFP and non-targeting sgRNA (sgNT) or sgRNAs targeting TSC1 or TSC2. Three days after infection, RFP and GFP cells were mixed at a 1:1 ratio and treated with DMSO, 0.1 μM Compound D, or […] Compound D. The change of RFP+/GFP+ ratio was monitored by flow cytometry every 2-3 days thereafter.
A CRISPR competition assay was performed as shown in the upper panel of FIG. 5A, and similarly to the assay described above. U937 cells stably expressing Cas9 were infected with a lentiviral vector constitutively expressing GFP and non-targeting sgRNA (sgNT), or with lentiviral vectors constitutively expressing RFP and non-targeting sgRNA (sgNT) or sgRNAs targeting GCN2. On day 2, RFP and GFP cells were mixed at a 1:1 ratio and treated with DMSO or 100 nM Compound D. The change of RFP+/GFP+ ratio was monitored by flow cytometry every 2-3 days thereafter.
Next, CRISPR competition assays were conducted in U937 and OCI-AML2 cells as described above. Specifically, U937 and OCI-AML2 cell lines were transduced with plenti-EF1á-Cas9-P2A-Blast, followed by Blasticidin selection to establish Cas9-expressing cell lines. U937-Cas9 and OCI-AML2-Cas9 cells were then transduced with pRSG17-U6-sgNT-1-UbiC-TagGFP2-2A-Puro, or pRSG16-U6-UbiC-TagRFP-2A-Puro vectors expressing sgNT-1, sgNC-1, sgNC-8 or gene-specific sgRNAs. Transduced cells were washed with 1×PBS 72 hours post-transduction. Cells were assessed for transduction via RFP or GFP fluorescence reporter expression. Once fluorescence reporter expression was confirmed, RFP- and GFP-transduced cells were mixed at a 1:1 ratio and seeded in 2 ml culture media per well in 12-well tissue culture plates at a cell density of 200,000 cells per mL, and treated with DMSO or an appropriate dose of Compound. Remaining cells underwent puromycin selection for 3-7 days and were harvested for immunoblot analysis to confirm gene knock-out. After seeding cells for culture in 12-well plates, 100 iL cell culture per well was removed for flow cytometric analysis as the baseline “Day 0” RFP- and GFP-positive percentages in each well. […]

GCN2-mediated ISR = assay: Immunoblot analysis of integrated stress response and apoptosis markers; type: cell-based, human
Description: The U937 GCN2−/− cell line is derived from a single clone of U937 parental cells stably infected with a lentiviral CRISPR vector targeting GCN2. […] Cells were incubated with DMSO or 200 nM Compound D and lysed at the indicated time points. Arrows pointing to bands in the blot on the right designate the cleaved forms of caspase-3. […] The U937 GCN2−/− cell line is derived from a single clone of U937 parental cells stably infected with a lentiviral CRISPR vector targeting GCN2. […] Cells were treated with DMSO or Compound D for 24 hours. On day 3 after Compound D treatment, cell proliferation was assessed by CTG. Result shown in all figure panels is representative of at least three biological replicates. Data in FIGS. 13C, 13D and 13E are shown as mean±SD, n=3 technical replicates.
To determine if the activation of the ISR by Compound D is solely mediated by GCN2, the effect of GCN2 ablation on Compound D response was evaluated.

With `O=C1CCC(N2Cc3cc(CNC(=O)C(F)(F)c4ccc(Cl)cc4)ccc3C2=O)C(=O)N1` (centres unmarked) [Compound D, 2-(4-chlorophenyl)-N-((2-(2,6-dioxopiperidin-3-yl)-1-oxoisoindolin-5-yl)methyl)-2,2-difluoroacetamide] the “response after TSC1 or TSC2 knockout” value (U937 and OCI-AML2 cells; U937 1 μM or 10 μM, OCI-AML2 0.1 μM or 1 μM) was “conferred a growth advantage in the presence of, but not in the absence of, Compound D; also recorded: increased resistance to Compound D”, the “growth inhibition after loss of GCN1, GCN2, ATF4 or DDIT4” value (U937 and OCI-AML2 cells; U937 (10 μM) and OCI-AML2) was “protected the cells against Compound D-induced growth inhibition” and the “response of cells lacking GCN2” value (U937 and OCI-AML2 cells; U937, 100 nM) was “resistant to Compound D”. For the same compound, the “sensitivity after knockout of mTOR, Raptor and Rictor” value (U937 and OCI-AML2 cells; U937, 100 nM) was “enhances U937 sensitivity to Compound D”, the “response after ILF2 or ILF3 knockout” value (U937 and OCI-AML2 cells; U937 and OCI-AML2) was “led to Compound D resistance” and the “activation of the ISR (eIF2a phosphorylation, ATF4 and targets)” value (GCN2-mediated ISR; U937 24 hours, KG-1 200 nM) was “triggered the rapid phosphorylation of eIF2a, accumulation of ATF4 and its transcriptional targets DDIT4, CHOP and ATF3”. For the same compound, the “apoptosis (cleaved caspase-3)” value (GCN2-mediated ISR; U937, KG-1 200 nM) was “subsequent induction of apoptosis” and the “ISR activation and caspase-3 cleavage after GCN2 knockout” value (GCN2-mediated ISR; U937 GCN2-/-, 24 hours) was “inhibited the phosphorylation of eIF2a, induction of ATF4 and its target gene DDIT4, and the cleavage of caspase-3”.
